Eleven compounds from ChEMBL document CHEMBL1201862, “PubChem BioAssay data set” (2004) can be followed below.

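Protocol summary: plate cells (96-well), add compound at 5 concentrations, incubate 48 h, interpolate endpoints linearly. Here, GI50 denotes the concentration required for 50% inhibition of growth.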 The source made the active and inactive calls. No stated cut-off is given here; in the data, active = GI50 up to about 1.1 µM and inactive = higher.

Some test systems named below: NCI/ADR-RES; HCC 2998; HL-60; NCI-H23; BT-549; CAKI-1; KM12; OVCAR-3; DU-145; UACC-62; COLO 205; T47D; HCT-116; SNB-75; OVCAR-5; HOP-92; OVCAR-4; SK-MEL-28; RXF 393; MCF7.
Common to all, as to assay: NCI-60 cell line screen, 48 h

Consider `C(=N\c1ccc(-c2nc3ccccc3s2)cc1)/c1cccs1`, for which the GI50 is 43.3 µM (inactive) with NCI/ADR-RES; 34 µM (inactive) in the experiment with HCC 2998; < 0.01 µM (active) with HL-60; 54.3 µM (inactive) with NCI-H23; 56.2 µM (inactive) in the experiment with BT-549; 38.5 µM (inactive) in the experiment on CAKI-1. Besides, the GI50 in the experiment with KM12 was 40.1 µM (inactive); in the experiment with OVCAR-3 it was 42.5 µM (inactive); in the experiment on DU-145, 69.8 µM (inactive); in the experiment on UACC-62, 42 µM (inactive); in the experiment on COLO 205, 42.1 µM (inactive); in the experiment with T47D, 22.8 µM (inactive). Further, the GI50 is 52.1 µM (inactive) in the experiment on HCT-116; 29.9 µM (inactive) with SNB-75; 89.1 µM (inactive) in the experiment on OVCAR-5; 28.4 µM (inactive) with HOP-92; 39.9 µM (inactive) in the experiment on OVCAR-4; > 100 µM (inactive) with SK-MEL-28. In addition, the GI50 in the experiment on RXF 393 was 27.5 µM (inactive).

In the case of `COc1cc(/C=C/C2=NN(c3cccc(S(=O)(=O)O)c3)C3(C2)C(Cl)C(=O)N3c2nc3ccccc3s2)ccc1O` (stereo unspecified), the GI50 is 27.4 µM (inactive) in the experiment on NCI/ADR-RES; 20.7 µM (inactive) in the experiment with HCC 2998; 21.4 µM (inactive) in the experiment on HL-60; 13 µM (inactive) with NCI-H23; 14.7 µM (inactive) in the experiment on BT-549; 17 µM (inactive) with CAKI-1. For the same compound, the GI50 in the experiment with KM12 was 19.1 µM (inactive); with UACC-62, 18.5 µM (inactive); in the experiment with COLO 205 it was 18.5 µM (inactive); in the experiment on T47D, 6.47 µM (inactive); with HCT-116, 19.5 µM (inactive); in the experiment with SNB-75, 21.7 µM (inactive). Besides, the GI50 in the experiment with MCF7 is 33.1 µM (inactive); in the experiment on OVCAR-5 it was 20.2 µM (inactive); in the experiment with HOP-92, 13.2 µM (inactive); in the experiment with OVCAR-4, 16.1 µM (inactive); in the experiment with SK-MEL-28, 25.1 µM (inactive); in the experiment with RXF 393 it was 29.2 µM (inactive).

Regarding `O=c1[nH]c(=O)n(Cc2ccccc2CO)cc1Sc1ccccc1`, the GI50 was 26.8 µM (inactive) in the experiment with NCI/ADR-RES; 15.7 µM (inactive) in the experiment with HCC 2998; 74.8 µM (inactive) in the experiment with HL-60; 17.4 µM (inactive) with NCI-H23; 13.5 µM (inactive) with CAKI-1; 23.7 µM (inactive) with KM12. In addition, the GI50 in the experiment with OVCAR-3 was 19.5 µM (inactive); in the experiment with DU-145 it was 58.9 µM (inactive); with UACC-62 it was 31.3 µM (inactive); with COLO 205, 37.2 µM (inactive); in the experiment on T47D, 62.4 µM (inactive); in the experiment with HCT-116 it was 25.3 µM (inactive). In addition, the GI50 with SNB-75 is 36.6 µM (inactive); with MCF7, 22.3 µM (inactive); in the experiment on OVCAR-5 it was > 100 µM (inactive); with HOP-92, 36.2 µM (inactive); in the experiment on OVCAR-4, 50 µM (inactive); with SK-MEL-28, 34.8 µM (inactive). Further, the GI50 with RXF 393 was 24.7 µM (inactive).

Turning to `CCOC(=O)CC1(N)CC2c3ccccc3OC(=O)C2C(=O)N1` (stereo unspecified), the GI50 in the experiment on NCI/ADR-RES, in the experiment on HCC 2998, in the experiment on HL-60, in the experiment with NCI-H23, in the experiment with BT-549 and in the experiment on CAKI-1 was > 100 µM (inactive) in each case. The GI50 in the experiment on KM12, in the experiment on OVCAR-3, in the experiment with DU-145, in the experiment on UACC-62, with COLO 205 and with T47D was > 100 µM (inactive) throughout. The GI50 in the experiment on HCT-116, with SNB-75, in the experiment on OVCAR-5, in the experiment with HOP-92, in the experiment on OVCAR-4 and in the experiment with SK-MEL-28 was > 100 µM (inactive) throughout. Further, the GI50 in the experiment with RXF 393 is > 100 µM (inactive).

On to `COC[C@@H](/N=C/C(C)(C)C)C(C)C`, for which the GI50 with NCI/ADR-RES, in the experiment with HCC 2998, in the experiment with HL-60, with NCI-H23, with CAKI-1 and in the experiment on KM12 was > 100 µM (inactive) in each case. Moreover, the GI50 in the experiment on OVCAR-3, in the experiment with DU-145, in the experiment with UACC-62, in the experiment on COLO 205, in the experiment with T47D and in the experiment with HCT-116 was > 100 µM (inactive) in each case. Moreover, the GI50 with SNB-75, with MCF7, in the experiment on OVCAR-5, in the experiment with HOP-92, in the experiment with OVCAR-4 and in the experiment with SK-MEL-28 was > 100 µM (inactive) each time. The GI50 with RXF 393 was > 100 µM (inactive).

For the compound `C(/C=N/N=C1NCCN1)=N\N=C1NCCN1`, the GI50 in the experiment with NCI/ADR-RES was > 100 µM (inactive); with HCC 2998, > 100 µM (inactive); with HL-60, 12.5 µM (inactive); in the experiment with NCI-H23 it was > 100 µM (inactive); in the experiment with BT-549, > 100 µM (inactive); with CAKI-1, > 100 µM (inactive). Moreover, the GI50 in the experiment on KM12, in the experiment with OVCAR-3, in the experiment with UACC-62, in the experiment with COLO 205, in the experiment with T47D and in the experiment on HCT-116 was > 100 µM (inactive) each time. The GI50 was 47.3 µM (inactive) in the experiment on SNB-75; > 100 µM (inactive) in the experiment on MCF7; > 100 µM (inactive) with OVCAR-5; > 100 µM (inactive) with HOP-92; > 100 µM (inactive) in the experiment with OVCAR-4; > 100 µM (inactive) in the experiment on SK-MEL-28. For the same compound, the GI50 with RXF 393 was > 100 µM (inactive).

For `COc1cc2c(cc1OC)C(=O)N(c1ccc(O)cc1)C2`, the GI50 in the experiment on NCI/ADR-RES, in the experiment on HCC 2998, in the experiment with HL-60, in the experiment with NCI-H23, with BT-549 and with CAKI-1 was > 100 µM (inactive) each time. Further, the GI50 in the experiment with OVCAR-3, with DU-145, in the experiment on UACC-62, in the experiment with COLO 205, in the experiment with T47D and in the experiment on HCT-116 was > 100 µM (inactive) each time. The GI50 in the experiment with OVCAR-5, with HOP-92, in the experiment with OVCAR-4, with SK-MEL-28 and in the experiment with RXF 393 was > 100 µM (inactive) throughout.

Regarding `CC(=O)Oc1ccc2cc(Oc3ccc(Cl)c(Cl)c3)c(=O)oc2c1`, the GI50 in the experiment on HCC 2998 is 19.5 µM (inactive); in the experiment on HL-60, 60.5 µM (inactive); in the experiment with NCI-H23, 35.6 µM (inactive); with BT-549, 12.6 µM (inactive); in the experiment with CAKI-1 it was 20.3 µM (inactive); in the experiment on KM12 it was 18.5 µM (inactive). Also, the GI50 in the experiment on OVCAR-3 is 22.9 µM (inactive); with DU-145, 39.3 µM (inactive); in the experiment on T47D, 11.5 µM (inactive); in the experiment on HCT-116, 18.5 µM (inactive); with SNB-75, 22 µM (inactive); in the experiment with MCF7, 34.8 µM (inactive). In addition, the GI50 is 72.6 µM (inactive) in the experiment on OVCAR-5; 20.3 µM (inactive) with HOP-92; 41.8 µM (inactive) with OVCAR-4; 25.3 µM (inactive) with SK-MEL-28; 19.2 µM (inactive) in the experiment with RXF 393.

As to `CCOC(=O)c1c[nH]c(C(=O)OCC)c1-c1cccn1-c1ccccc1`, the GI50 in the experiment with NCI/ADR-RES was 19.1 µM (inactive); in the experiment on HL-60, 18.4 µM (inactive); in the experiment on NCI-H23, 28.5 µM (inactive); in the experiment with BT-549, 25.3 µM (inactive); with CAKI-1, 20.9 µM (inactive); in the experiment on KM12, 10.1 µM (inactive). Besides, the GI50 in the experiment with OVCAR-3 is 16.8 µM (inactive); in the experiment with DU-145 it was 43.2 µM (inactive); with UACC-62, 17.4 µM (inactive); with COLO 205, 21.3 µM (inactive); in the experiment on T47D, 28.1 µM (inactive); with HCT-116, 15.6 µM (inactive). For the same compound, the GI50 was 7.06 µM (inactive) in the experiment with SNB-75; > 100 µM (inactive) with OVCAR-5; 23.3 µM (inactive) with HOP-92; 32.4 µM (inactive) in the experiment on SK-MEL-28; 16 µM (inactive) in the experiment on RXF 393.

Regarding `C[N+](C)(CCNc1ccc(NCC[N+](C)(C)Cc2ccc([N+](=O)[O-])cc2)c2c1C(=O)c1c(O)ccc(O)c1C2=O)Cc1ccc([N+](=O)[O-])cc1`, the GI50 was > 50 µM (inactive) with NCI/ADR-RES; > 50 µM (inactive) in the experiment on HCC 2998; > 50 µM (inactive) with HL-60; > 50 µM (inactive) with NCI-H23; 26.5 µM (inactive) in the experiment with BT-549; > 50 µM (inactive) in the experiment on CAKI-1. For the same compound, the GI50 is 1.36 µM (inactive) in the experiment with KM12; > 50 µM (inactive) with OVCAR-3; 25.5 µM (inactive) in the experiment on DU-145; > 50 µM (inactive) in the experiment on UACC-62; 18.7 µM (inactive) in the experiment with COLO 205; > 50 µM (inactive) in the experiment with T47D. Besides, the GI50 in the experiment on HCT-116 was 9.53 µM (inactive); with SNB-75 it was > 50 µM (inactive); with OVCAR-5, > 50 µM (inactive); in the experiment with OVCAR-4, > 50 µM (inactive); in the experiment with SK-MEL-28 it was > 50 µM (inactive); in the experiment on RXF 393, > 50 µM (inactive).

With `COc1ccc2c(=O)c(-c3cc(OC)c(OC)cc3OC)coc2c1`, the GI50 in the experiment with HCC 2998 is 2.94 µM (inactive); in the experiment with HL-60, 0.735 µM (active); in the experiment on NCI-H23, 8.67 µM (inactive); in the experiment with BT-549, > 100 µM (inactive); in the experiment on CAKI-1 it was 3.01 µM (inactive); with KM12 it was 2.74 µM (inactive). The GI50 was 1.84 µM (inactive) in the experiment on OVCAR-3; 2.86 µM (inactive) in the experiment with DU-145; 1.97 µM (inactive) with UACC-62; 3.32 µM (inactive) in the experiment with COLO 205; 6.7 µM (inactive) with T47D; 2.28 µM (inactive) with HCT-116. Also, the GI50 was 2.26 µM (inactive) in the experiment on SNB-75; 0.778 µM (active) in the experiment with MCF7; > 100 µM (inactive) in the experiment with OVCAR-5; 1.81 µM (inactive) in the experiment with HOP-92; > 100 µM (inactive) in the experiment with OVCAR-4; 3.65 µM (inactive) in the experiment with SK-MEL-28. In the experiment with RXF 393, the GI50 was 2.45 µM (inactive).
